pIC50: −log10 of the molar value.
Key:
[1] = molecular target: T1, Fibroblast growth factor receptor 1 (Homo sapiens, UniProt P11362); assay: Inhibition of recombinant human His-tagged FGFR1 cytoplasmic domain (308 to 731 residues) expressed in baculovirus expression system using Tyr 04 as substrate measured after 1 hr by Z'-LYTE assay
[2] = molecular target: T1, Fibroblast growth factor receptor 1; assay: Inhibition of recombinant human His-tagged FGFR1 cytoplasmic domain (308 to 731 residues) expressed in baculovirus expression system at 500 uM using Tyr 04 as substrate measured after 1 hr by Z'-LYTE assay relative to control
[3] = molecular target: T1, Fibroblast growth factor receptor 1; assay: Inhibition of recombinant human His-tagged FGFR1 cytoplasmic domain (308 to 731 residues) expressed in baculovirus expression system at 100 uM using Tyr 04 as substrate measured after 1 hr by Z'-LYTE assay relative to control
[4] = molecular target: Fibroblast growth factor receptor 3 (Homo sapiens, UniProt P22607); assay: Inhibition of recombinant human His-tagged FGFR3 cytoplasmic domain (399 to 806 residues) expressed in baculovirus expression system using Tyr 04 as substrate measured after 1 hr by Z'-LYTE assay
Fibroblast growth factor receptor 3, sequence (P22607 whole entry, the tested form may be a part): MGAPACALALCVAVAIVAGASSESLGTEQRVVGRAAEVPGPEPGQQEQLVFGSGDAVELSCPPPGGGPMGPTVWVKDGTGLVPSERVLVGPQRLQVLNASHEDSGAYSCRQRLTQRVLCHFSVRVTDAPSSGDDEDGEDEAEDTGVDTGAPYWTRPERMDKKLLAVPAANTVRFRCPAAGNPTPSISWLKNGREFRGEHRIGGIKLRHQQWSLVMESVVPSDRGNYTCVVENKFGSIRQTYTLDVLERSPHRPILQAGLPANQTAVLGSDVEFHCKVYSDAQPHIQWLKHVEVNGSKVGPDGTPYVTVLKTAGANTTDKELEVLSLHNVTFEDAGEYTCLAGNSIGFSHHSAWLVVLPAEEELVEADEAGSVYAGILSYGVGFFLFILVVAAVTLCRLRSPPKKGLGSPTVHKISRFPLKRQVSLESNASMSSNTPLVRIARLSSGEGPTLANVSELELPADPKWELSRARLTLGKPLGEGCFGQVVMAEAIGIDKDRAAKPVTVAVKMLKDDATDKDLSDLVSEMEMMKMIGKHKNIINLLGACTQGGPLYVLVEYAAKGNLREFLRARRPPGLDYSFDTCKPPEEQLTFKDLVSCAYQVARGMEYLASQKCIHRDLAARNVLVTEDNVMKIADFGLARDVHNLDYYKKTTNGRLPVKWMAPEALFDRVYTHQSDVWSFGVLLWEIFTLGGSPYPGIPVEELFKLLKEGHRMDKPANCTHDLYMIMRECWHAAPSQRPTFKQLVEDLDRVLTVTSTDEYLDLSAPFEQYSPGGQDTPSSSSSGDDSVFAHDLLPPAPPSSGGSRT

T1 sequence (P11362 whole entry, the tested form may be a part): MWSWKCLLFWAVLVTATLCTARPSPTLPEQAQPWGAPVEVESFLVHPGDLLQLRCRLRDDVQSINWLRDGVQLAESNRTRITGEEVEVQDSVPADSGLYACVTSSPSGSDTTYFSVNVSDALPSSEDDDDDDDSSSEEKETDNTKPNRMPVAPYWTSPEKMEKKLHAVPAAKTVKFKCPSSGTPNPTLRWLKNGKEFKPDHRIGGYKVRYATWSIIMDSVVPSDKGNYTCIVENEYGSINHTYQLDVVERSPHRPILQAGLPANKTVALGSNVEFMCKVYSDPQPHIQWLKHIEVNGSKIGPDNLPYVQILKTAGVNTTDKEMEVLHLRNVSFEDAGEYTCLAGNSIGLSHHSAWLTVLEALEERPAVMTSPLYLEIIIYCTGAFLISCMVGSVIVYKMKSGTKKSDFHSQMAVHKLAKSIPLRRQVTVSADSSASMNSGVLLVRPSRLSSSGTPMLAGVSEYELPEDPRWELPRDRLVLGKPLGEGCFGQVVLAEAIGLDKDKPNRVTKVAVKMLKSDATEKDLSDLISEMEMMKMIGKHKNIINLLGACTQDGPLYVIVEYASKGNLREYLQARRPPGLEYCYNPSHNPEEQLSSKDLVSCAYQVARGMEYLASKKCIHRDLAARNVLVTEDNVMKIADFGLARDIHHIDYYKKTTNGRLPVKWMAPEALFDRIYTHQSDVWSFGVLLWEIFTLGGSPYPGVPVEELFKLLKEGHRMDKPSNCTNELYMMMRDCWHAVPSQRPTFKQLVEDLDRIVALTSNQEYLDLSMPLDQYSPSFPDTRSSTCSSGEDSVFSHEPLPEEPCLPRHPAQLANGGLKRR

pIC50 [1]	inhibition at 100 µM [3] [%]	SMILES	also measured
5.19	–	Cc1cc(O)ccc1-c1ccc2cn[nH]c2c1	–
4.05	–	c1cncc(-c2ccc3cn[nH]c3c2)c1	inhibition at 500 µM [2]: 66%
–	32	Clc1cccc(-c2ccc3cn[nH]c3c2)c1	–
–	–	c1ccc(-c2ccc3cc[nH]c3c2)cc1	inhibition at 500 µM [2]: 1%
–	29	c1coc(-c2ccc3cn[nH]c3c2)c1	–
5.00	–	Oc1ccc(-c2ccc3cn[nH]c3c2)c(F)c1	pIC50 [4]: < 4.00
4.08	–	CCOc1cc(F)cc(-c2ccc3cn[nH]c3c2)c1	pIC50 [4]: < 4.00
< 3.30	–	Clc1cncc(-c2ccc3cc[nH]c3c2)c1	inhibition at 500 µM [2]: 21%
4.44	–	Clc1cncc(-c2ccc3cn[nH]c3c2)c1	inhibition at 500 µM [2]: 73%
–	19	Cc1csc(-c2ccc3cn[nH]c3c2)c1	–
–	12	Clc1ccc(-c2ccc3cn[nH]c3c2)cc1	–
–	19	Fc1cccc(-c2ccc3cn[nH]c3c2)c1	–
4.85	–	Oc1ccc(-c2ccc3cn[nH]c3c2)cc1F	–
–	20	c1cc(-c2ccc3cn[nH]c3c2)cs1	–
4.11	–	c1ccc(-c2ccc3cn[nH]c3c2)cc1	inhibition at 500 µM [2]: 53%
5.01	–	CCOc1cccc(-c2ccc3cn[nH]c3c2)c1F	pIC50 [4]: < 4.00
5.06	–	Cc1cc(-c2ccc3cn[nH]c3c2)ccc1O	–
< 4.00	–	CCOc1ccc(F)c(-c2ccc3cn[nH]c3c2)c1F	pIC50 [4]: < 4.00
–	-5	FC(F)(F)c1cc(-c2ccc3cn[nH]c3c2)cc(C(F)(F)F)c1	–
–	11	COc1ccc(-c2ccc3cn[nH]c3c2)cc1	–
–	–	c1cncc(-c2ccc3cc[nH]c3c2)c1	inhibition at 500 µM [2]: 16%
